Measured values reported in paper PMC12112332, “Characterization of Novel and Known Activators of Cannabinoid Receptor Subtype 2 Reveals Mixed Pharmacology That Differentiates Mycophenolate Mofetil and GW-842,166X from MDA7” (International Journal of Molecular Sciences, 2025).
Where two headings read alike, the source gives them in different places.

Columns and labels:
rat CB2 = target: T1, rat CB2 (Rattus norvegicus, UniProt Q9QZN9); test: β-arrestin recruitment assay (PathHunter, Eurofins) in rat CB2 cells; assay type: cell-based; parameters: expressed in transfected cells; settings: for rCB2 β-Arrestin (−) CP55,940 % Max / rCB2 β-Arrestin (+) CP55,940 % Max: % of maximal CP55,940 response
T1 sequence (Q9QZN9 1-360): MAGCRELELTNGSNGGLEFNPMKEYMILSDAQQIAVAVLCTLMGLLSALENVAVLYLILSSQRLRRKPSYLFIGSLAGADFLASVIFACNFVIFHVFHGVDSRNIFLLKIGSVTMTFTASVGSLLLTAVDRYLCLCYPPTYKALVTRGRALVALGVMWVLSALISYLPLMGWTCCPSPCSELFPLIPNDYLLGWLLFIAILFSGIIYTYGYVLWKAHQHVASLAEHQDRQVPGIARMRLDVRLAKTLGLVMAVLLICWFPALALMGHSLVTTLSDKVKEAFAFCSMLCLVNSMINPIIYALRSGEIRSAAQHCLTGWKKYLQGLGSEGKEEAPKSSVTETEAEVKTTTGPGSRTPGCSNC
Method: Assays were performed by Eurofins Discovery (Freemont, CA, USA). PathHunter cell lines were expanded from freezer stocks according to standard procedures. Rat CB2 cells were seeded in a total volume of 20 μL into white-walled, 384-well microplates and incubated at 37 °C for the appropriate time prior to testing. For agonist determination, cells were incubated with the sample to induce a response. Intermediate dilution of sample stocks was performed to generate a 5× sample in assay buffer. A total of 5 μL of 5× sample was added to the cells and incubated at 37 °C or room temperature for at least 120 min. The final assay vehicle concentration was 1%. For allosteric modulator determination, cells were pre-incubated with the sample followed by agonist challenge at the EC20. Intermediate dilution of sample stocks was performed to generate a 5× sample in assay buffer. A total of 5 μL of 5× sample was added to cells and incubated at 37 °C or room temperature for 15 min. Vehicle concentration was 1%. Then, 5 μL of 6× EC20 agonist in assay buffer was added to the cells and incubated at 37 °C or room temperature for at least 120 min.
The assay signal was generated through a single addition of 15 μL (50% v/v) of PathHunter Detection reagent cocktail, followed by a one-hour incubation at room temperature. Microplates were read following signal generation with a PerkinElmer Envision^TM instrument for chemiluminescent signal detection.
Compound activity was analyzed using the CBIS data analysis suite (ChemInnovation). For agonist mode assays, percentage activity was calculated using the following formula: % Activity = 100% × (mean RLU of test sample − mean RLU of vehicle control)/(mean MAX control ligand − mean RLU of vehicle control).
For positive allosteric mode assays, percentage modulation was calculated using the following formula: % Modulation = 100% × ((mean RLU of test sample − mean RLU of EC20 control)/(mean RLU of MAX control ligand − mean RLU of EC20 control)).

Human CB2 = Human CB2 (Homo sapiens, UniProt P34972); test: cAMP inhibition assay (HitHunter cAMP XS+, Eurofins) in human CB2 cells; assay type: cell-based; settings: for hCB2 cAMP (−) CP55,940 % Max: absence of CP55,940; for hCB2 cAMP (−) CP55,940 % Max / hCB2 cAMP (+) CP55,940 % Max: % of maximal CP55,940 response; for hCB2 cAMP (+) CP55,940 % Max: presence of EC20 CP55,940
Method: Assays were performed by Eurofins Discovery (Freemont, CA, USA). cAMP Hunter cell lines were expanded from freezer stocks according to standard procedures. Human CB2 cells were seeded in a total volume of 20 μL into white-walled, 384-well microplates and incubated at 37 °C for the appropriate time prior to testing. cAMP modulation was determined using the DiscoverX HitHunter cAMP XS+ assay. For agonist determination, cells were incubated with samples in the presence of EC80 forskolin to induce a response. Media was aspirated from cells and replaced with 10 μL HBSS/10 mM HEPES. Intermediate dilution of sample stocks was performed to generate 4× sample in assay buffer, and 5 μL of 4× sample was added to cells. Then, 5 μL of 4× EC80 forskolin diluted in HBSS/HEPES was added and incubated at 37 °C for 30 min. The final assay vehicle concentration was 1%. For allosteric determination, cells were pre-incubated with the sample followed by agonist induction at the EC20 concentration. Media was aspirated from cells and replaced with 10 μL HBSS/10 mM HEPES. Intermediate dilution of sample stocks was performed to generate 4× samples in assay buffer. Then, 5 μL of 4× compound was added to the cells and incubated at room temperature or 37 °C for 5 min. Subsequently, 5 μL of 4× EC20 agonist was added to the cells and incubated at 37 °C for 30 min. EC80 forskolin was included.
After appropriate compound incubation, the assay signal was generated by incubation with 5 μL cAMP XS+ Ab reagent, followed by 20 μL cAMP XS+ ED/CL lysis cocktail for one hour at room temperature. Then, 20 μL cAMP XS+ EA reagent was added and incubated for two hours at room temperature. Microplates were read following signal generation with a PerkinElmer Envision^TM instrument for chemiluminescent signal detection.
Compound activity was analyzed using the CBIS data analysis suite (ChemInnovation, San Diego, CA, USA). For agonist mode assays, percentage activity was calculated using the following formula: % Activity = 100% × (1 − (mean RLU of test sample − mean RLU of MAX control)/(mean RLU of vehicle control − mean RLU of MAX control)).
For Gi positive allosteric mode assays, percentage modulation was calculated using the following formula: % Modulation = 100% × (1 − (mean RLU of test sample − mean RLU of MAX control)/(mean RLU of EC20 control − mean RLU of MAX control)).

[1] = rCB2 β-Arrestin (+) CP55,940 pEC50, presence of EC20 CP55,940
[2] = rCB2 β-Arrestin (−) CP55,940 pEC50, absence of CP55,940
[3] = hCB2 cAMP (+) CP55,940 pEC50, presence of EC20 CP55,940, EC80 forskolin
[4] = hCB2 cAMP (−) CP55,940 pEC50, absence of CP55,940, EC80 forskolin

Human CB2, sequence (P34972 whole entry): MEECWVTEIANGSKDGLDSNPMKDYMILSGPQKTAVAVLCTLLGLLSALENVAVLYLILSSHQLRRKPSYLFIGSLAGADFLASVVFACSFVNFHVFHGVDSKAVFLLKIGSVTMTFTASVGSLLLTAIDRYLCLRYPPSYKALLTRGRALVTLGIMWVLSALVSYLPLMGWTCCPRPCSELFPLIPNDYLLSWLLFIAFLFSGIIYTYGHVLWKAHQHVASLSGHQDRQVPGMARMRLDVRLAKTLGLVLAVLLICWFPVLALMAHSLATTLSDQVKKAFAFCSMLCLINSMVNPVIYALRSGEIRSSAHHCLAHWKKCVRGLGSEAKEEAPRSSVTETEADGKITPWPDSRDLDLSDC

| Compound | rCB2 β-Arrestin (−) CP55,940 % Max (rat CB2; absence of CP55,940) | rCB2 β-Arrestin (+) CP55,940 % Max (rat CB2; presence of EC20 CP55,940) | EC50 (rat CB2; [1]) | EC50 (rat CB2; [2]) | hCB2 cAMP (−) CP55,940 % Max (Human CB2) | EC50 (Human CB2; [3]) | EC50 (Human CB2; [4]) | hCB2 cAMP (+) CP55,940 % Max (Human CB2) | EC50 (rat CB2; absence of CP55,940, read-out: rCB2 β-Arrestin (−) CP55,940 pEC50 (converted)) | EC50 (rat CB2; presence of EC20 CP55,940, read-out: rCB2 β-Arrestin (+) CP55,940 pEC50 (converted)) | hCB2 cAMP (−) CP55,940 pEC50 (Human CB2; absence of CP55,940, EC80 forskolin) | EC50 (Human CB2; presence of EC20 CP55,940, EC80 forskolin, read-out: hCB2 cAMP (+) CP55,940 pEC50 (converted)) |
| --- | --- | --- | --- | --- | --- | --- | --- | --- | --- | --- | --- | --- |
| O=C(NCC1CCOCC1)c1cnc(Nc2ccc(Cl)cc2Cl)nc1C(F)(F)F [GW-842,166X, 2-(2,4-dichloroanilino)-N-(oxan-4-ylmethyl)-4-(trifluoromethyl)pyrimidine-5-carboxamide] | 97% | 120% | 0.631 µM | 0.162 µM | 120% | 5.13 µM | 2.04 µM | 119% |  |  |  |  |
| CC1(Cc2ccccc2)COc2cc(C(=O)N3CCCCC3)ccc21 (stereo not drawn) [MDA7, 1-[(3-benzyl-3-methyl-2,3-dihydro-1-benzofuran-6-yl)carbonyl]piperidine] | 38% | 40% | > 10 µM | 0.0479 µM | 108% | > 10 µM | > 10 µM | 111% |  |  |  |  |
| COc1c(C)c2c(c(O)c1C/C=C(\C)CCC(=O)OCCN1CCOCC1)C(=O)OC2 [Mycophenolate mofetil] | 114% | 113% |  |  | 46% |  |  | 41% | 1.15 µM | 1.35 µM | < 5.0 | > 10 µM |
